Results taken from patent EP0723972A1, “Lactylamines and their pharmaceutical application” (STEPAN EUROPE, priority 1995, dated 1996).
Values joined by “and” are separate entries in the source; they are usually repeats but may differ in a detail not shown here. Equal entries are not always repeated. Where two headings read alike, the source gives them in different places.

How the values were obtained:
Assay type in all cases: cell-based
[1] = test system: Aspergillus fumigatus; experiment: Anti-Aspergillus fumigatus in vitro growth inhibition (glucose consumption); settings: for IC50: Aspergillus fumigatus
Source text: Différents composés B1 ont été testés du point de vue de leurs propriétés anti-Aspergillus fumigatus, dans un essai in vitro standardisé, complètement décrit dans la publication (7) dont le contenu est incorporé, par référence, à la présente description.
Dans cet essai, la croissance dudit champignon est indiquée par la consommation de glucose qui constitue la seule source de carbone métabolisable, et on mesure la concentration en composé testé nécessaire pour inhiber 50% (IC50), et 90% (IC90) de la croissance du champignon. Deux composés témoin sont utilisés, l'Itraconazole et l'Amphotéricine B, dont les propriétés anti-Aspergillus fumigatus sont connues et qui servent dans cet essai de référence.

[2] = test system: VIH (souche BRU); experiment: Anti-HIV in vitro test: syncytia formation in HIV-infected CEM cells; settings: 96 h
Source text: Les composés A (A1, A2) et B (B1, B2) sont testés du point de vue de leurs propriétés anti-VIH selon un protocole d'essai in vitro standardisé et complètement décrit dans les publications (5, 6), dont le contenu est incorporé par référence, à la présente description.
La multiplication du VIH (souche BRU) dans les cellules CEM est évaluée par le nombre de syncytia formés après 4 jours d'infection, résultant de l'interaction entre la glycoprotéine gp120 exprimée par les cellules (BRU) infectées par le VIH, et les lymphocytes T4 (CEM).
Les composés testés sont ajoutés après l'adsorption du virus dans le milieu de culture aux concentrations finales 10^-3M, 10^-4M, 10^-5M, 10^-6M et 10^-7M.
Les résultats sont exprimés par la concentration la plus faible de composés qui diminue la formation des syncytia d'au moins 50%. Cette concentration est appelée EC50. Elle doit être la plus basse possible.

[3] = test system: CEM non infectées; experiment: Toxicity on uninfected CEM cells, colorimetric formazan (MTT) reduction; settings: lowest concentration inhibiting formazan formation by at least 50%, four days of incubation, macrophage CEM-SS
Experimental: On détermine aussi la toxicité des composés testés. L'effet toxique sur les CEM non infectées est apprécié par une réaction colorimétrique basée sur la capacité des cellules vivantes à réduire le bromure de 3-(4,5-diméthylthiazol-2-yl)-2,5-diphényltétrazolium en formazan après quatre jours d'incubation en présence de différentes concentrations des composés. Les résultats sont exprimés par la concentration la plus faible de composés qui provoque une inhibition d'au moins 50% de la formation de formazan. Cette concentration est appelée CI50.

[4] = anti-VIH sur macrophage CEM-SS, lowest concentration reducing syncytia formation by at least 50%, 4 days of infection, read-out: EC50

| Structure (SMILES) | IC50 ([1]; read-out: CI50) | EC50 [2, 4] | CI50 [3] | EC50 ([2]; CEM-SS) | IC50 ([1]; concentration inhibiting 50% of fungal growth, read-out: CI50 (the source's name)) | activité anti-Aspergillus fumigatus ([1]; result in words, compared with the reference compound) |
| --- | --- | --- | --- | --- | --- | --- |
| CCCCCCCCCNC[C@H](O)[C@@H](O)[C@H](O[C@@H]1O[C@H](CO)[C@H](O)[C@H](O)[C@H]1O)[C@H](O)CO [N-nonylaminodésoxy-1-lactitol] | > 100 µg/mL and > 220 µM | 1 µM | 40 µM | – | – | – |
| CCCCCCCCCCCCCCCCNC[C@H](O)[C@@H](O)[C@H](O[C@@H]1O[C@H](CO)[C@H](O)[C@H](O)[C@H]1O)[C@H](O)CO [N-hexadécylaminodésoxy-l-lactitol] | 2.2 µg/mL and 3.8 µM | – | 70 µM | 50 µM | – | – |
| CCCCCCCCCCCCNC[C@H](O)[C@@H](O)[C@H](O[C@@H]1O[C@H](CO)[C@H](O)[C@H](O)[C@H]1O)[C@H](O)CO [N-dodécylaminodésoxyl-1-lactitol] | > 100 µg/mL and 195 µM | – | 7000 µM | 1000 µM | – | – |
| CCC(C)n1ncn(-c2ccc(N3CCN(c4ccc(OCC5COC(Cn6cncn6)(c6ccc(Cl)cc6Cl)O5)cc4)CC3)cc2)c1=O (centres unmarked) [Itraconazole, reference compound] | – | – | – | – | 0.003 µg/mL and 4 nM | – |
| CCCCCCCCCCCCCC(=O)N(CCCCCCCCC)C[C@H](O)[C@@H](O)[C@H](O[C@@H]1O[C@H](CO)[C@H](O)[C@H](O)[C@H]1O)[C@H](O)CO [B1(9, 13)] | 5 µg/mL and 7.4 µM | – | – | – | – | – |
| CCCCCCCCCCCCCCNC[C@H](O)[C@@H](O)[C@H](O[C@@H]1O[C@H](CO)[C@H](O)[C@H](O)[C@H]1O)[C@H](O)CO [N-tétradécylaminodésoxy-l-lactitol] | 15.2 µg/mL and 28.1 µM | – | 70 µM | 50 µM | – | – |
| CCCCCCCCCCCCCCCCCC(=O)N(CCCCCCCCC)C[C@H](O)[C@@H](O)[C@H](O[C@@H]1O[C@H](CO)[C@H](O)[C@H](O)[C@H]1O)[C@H](O)CO [B1(9, 17)] | 0.5 µg/mL and 600 nM | – | – | – | – | proche de celle de l'Amphotéricine B |
| C[C@@H]1[C@H](O)[C@@H](C)/C=C/C=C/C=C/C=C/C=C/C=C/C=C/[C@H](O[C@@H]2O[C@H](C)[C@@H](O)[C@H](N)[C@@H]2O)C[C@@H]2O[C@](O)(C[C@@H](O)C[C@@H](O)[C@H](O)CC[C@@H](O)C[C@@H](O)CC(=O)O[C@H]1C)C[C@H](O)[C@H]2C(=O)O [Amphotéricine B, reference compound] | 0.02 µg/mL and 20 nM | – | – | – | – | – |
| CCCCCCCCCCCCCCCC(=O)N(CCCCCCCCC)C[C@H](O)[C@@H](O)[C@H](O[C@@H]1O[C@H](CO)[C@H](O)[C@H](O)[C@H]1O)[C@H](O)CO [B1(9, 15)] | 1.6 µg/mL and 2.3 µM | 10 µM | > 100 µM | – | – | – |
